Results: ChEMBL document CHEMBL1133079, “Synthesis and antibacterial activity of novel 6-O-substituted erythromycin A derivatives” (2000)
≈ marks a conversion by molar mass, not a printed value.

Assays:
Assay type in all cases: functional
Staphylococcus aureus [1] = assay: In vitro minimum inhibitory concentration against Staphylococcus aureus 6538P using standard agar dilution method
Staphylococcus aureus [2] = assay: In vitro minimum inhibitory concentration against Staphylococcus aureus A5177.
Streptococcus pneumoniae [3] = assay: In vitro minimum inhibitory concentration against Streptococcus pneumoniae 5649.
Streptococcus pneumoniae [4] = assay: In vitro minimum inhibitory concentration against Streptococcus pneumoniae 5737.
Streptococcus pyogenes [5] = assay: In vitro minimum inhibitory concentration against Streptococcus pyogenes 930 using standard agar dilution method
Streptococcus pyogenes [6] = assay: In vitro minimum inhibitory concentration against Streptococcus pyogenes EES61 using standard agar dilution method
Streptococcus pyogenes [7] = assay: In vitro minimum inhibitory concentration against Streptococcus pyogenes PIU 2548 using standard agar dilution method
Haemophilus influenzae = assay: In vitro minimum inhibitory concentration against Haemophilus influenzae DILL using standard agar dilution method
Streptococcus pneumoniae [8] = assay: In vitro minimum inhibitory concentration against Streptococcus pneumoniae ATCC 6303.

Row | SMILES | MIC (Staphylococcus aureus [1]) | MIC (Staphylococcus aureus [2]) | MIC (Streptococcus pneumoniae [3]) | MIC (Streptococcus pneumoniae [4]) | MIC (Streptococcus pyogenes [5]) | MIC (Streptococcus pyogenes [6]) | MIC (Streptococcus pyogenes [7]) | MIC (Haemophilus influenzae) | MIC (Streptococcus pneumoniae [8])
1 | CC[C@H]1OC(=O)[C@H](C)[C@@H](O[C@H]2C[C@@](C)(OC)[C@@H](O)[C@H](C)O2)[C@H](C)[C@@H](O[C@@H]2O[C@H](C)C[C@H](N(C)C)[C@H]2O)[C@@](C)(OCc2ccccc2)C[C@@H](C)C(=O)[C@H](C)[C@@H](O)[C@]1(C)O | 1.56 mg/L (≈ 1.89 µM) | 12.5 mg/L (≈ 15.2 µM) | 16 mg/L (≈ 19.4 µM) | 64 mg/L (≈ 77.7 µM) | > 128 mg/L | 0.06 mg/L (≈ 0.0728 µM) | 16 mg/L (≈ 19.4 µM) |  | 
2 | CC[C@H]1OC(=O)[C@H](C)[C@@H](O[C@H]2C[C@@](C)(OC)[C@@H](O)[C@H](C)O2)[C@H](C)[C@@H](O[C@@H]2O[C@H](C)C[C@H](N(C)C)[C@H]2O)[C@@](C)(OC/C=N/O)C[C@@H](C)C(=O)[C@H](C)[C@@H](O)[C@]1(C)O | 0.2 mg/L (≈ 0.253 µM) |  | 32 mg/L (≈ 40.5 µM) | > 128 mg/L |  | 0.015 mg/L (≈ 0.019 µM) | 64 mg/L (≈ 80.9 µM) | 16 mg/L (≈ 20.2 µM) | 0.06 mg/L (≈ 0.0759 µM)
3 | CC[C@H]1OC(=O)[C@H](C)[C@@H](O[C@H]2C[C@@](C)(OC)[C@@H](O)[C@H](C)O2)[C@H](C)[C@@H](O[C@@H]2O[C@H](C)C[C@H](N(C)C)[C@H]2O)[C@@](C)(OCC=O)C[C@@H](C)C(=O)[C@H](C)[C@@H](O)[C@]1(C)O | 0.78 mg/L (≈ 1.01 µM) | 25 mg/L (≈ 32.2 µM) | 64 mg/L (≈ 82.5 µM) | > 128 mg/L | > 128 mg/L | 0.06 mg/L (≈ 0.0773 µM) | 128 mg/L (≈ 165 µM) | 8 mg/L (≈ 10.3 µM) | 0.5 mg/L (≈ 0.644 µM)
4 | CC[C@H]1OC(=O)[C@H](C)[C@@H](O[C@H]2C[C@@](C)(OC)[C@@H](O)[C@H](C)O2)[C@H](C)[C@@H](O[C@@H]2O[C@H](C)C[C@H](N(C)C)[C@H]2O)[C@@](C)(OCC(O)CNCc2ccccc2)C[C@@H](C)C(=O)[C@H](C)[C@@H](O)[C@]1(C)O (stereo not given in full) | 0.39 mg/L (≈ 0.435 µM) | 6.2 mg/L (≈ 6.91 µM) | 64 mg/L (≈ 71.3 µM) | > 128 mg/L |  | 0.125 mg/L (≈ 0.139 µM) |  | 8 mg/L (≈ 8.92 µM) | 0.125 mg/L (≈ 0.139 µM)
5 | CC[C@H]1OC(=O)[C@H](C)[C@@H](O[C@H]2C[C@@](C)(OC)[C@@H](O)[C@H](C)O2)[C@H](C)[C@@H](O[C@@H]2O[C@H](C)C[C@H](N(C)C)[C@H]2O)[C@@](C)(OCC(C)=O)C[C@@H](C)C(=O)[C@H](C)[C@@H](O)[C@]1(C)O | 3.1 mg/L (≈ 3.92 µM) |  |  |  | > 128 mg/L |  | 128 mg/L (≈ 162 µM) |  | 

Further compounds by falling MIC (Staphylococcus aureus [1]), results first:

Row | MIC (Staphylococcus aureus [1]) | MIC (Staphylococcus aureus [2]) | MIC (Streptococcus pneumoniae [3]) | MIC (Streptococcus pneumoniae [4]) | MIC (Streptococcus pyogenes [5]) | MIC (Streptococcus pyogenes [6]) | MIC (Streptococcus pyogenes [7]) | MIC (Haemophilus influenzae) | MIC (Streptococcus pneumoniae [8]) | SMILES
6 | 25 mg/L (≈ 31.6 µM) | 25 mg/L (≈ 31.6 µM) |  |  | > 128 mg/L | 4 mg/L (≈ 5.06 µM) | > 128 mg/L | > 128 mg/L |  | CC[C@H]1OC(=O)[C@H](C)[C@@H](O[C@H]2C[C@@](C)(OC)[C@@H](O)[C@H](C)O2)[C@H](C)[C@@H](O[C@@H]2O[C@H](C)C[C@H](N(C)C)[C@H]2O)[C@@](C)(OCC2CO2)C[C@@H](C)C(=O)[C@H](C)[C@@H](O)[C@]1(C)O (stereo not given in full)
7 | 0.78 mg/L (≈ 1.01 µM) | 12.5 mg/L (≈ 16.1 µM) |  |  | > 128 mg/L |  | 64 mg/L (≈ 82.7 µM) | 32 mg/L (≈ 41.3 µM) |  | C=CCO[C@@]1(C)C[C@@H](C)C(=O)[C@H](C)[C@@H](O)[C@](C)(O)[C@@H](CC)OC(=O)[C@H](C)[C@@H](O[C@H]2C[C@@](C)(OC)[C@@H](O)[C@H](C)O2)[C@H](C)[C@H]1O[C@@H]1O[C@H](C)C[C@H](N(C)C)[C@H]1O
8 | 0.2 mg/L (≈ 0.259 µM) | 12.5 mg/L (≈ 16.2 µM) | 16 mg/L (≈ 20.7 µM) | > 128 mg/L | > 128 mg/L | 0.03 mg/L (≈ 0.0389 µM) |  | 16 mg/L (≈ 20.7 µM) | 0.06 mg/L (≈ 0.0777 µM) | C#CCO[C@@]1(C)C[C@@H](C)C(=O)[C@H](C)[C@@H](O)[C@](C)(O)[C@@H](CC)OC(=O)[C@H](C)[C@@H](O[C@H]2C[C@@](C)(OC)[C@@H](O)[C@H](C)O2)[C@H](C)[C@H]1O[C@@H]1O[C@H](C)C[C@H](N(C)C)[C@H]1O
9 | 0.2 mg/L (≈ 0.259 µM) |  | 16 mg/L (≈ 20.7 µM) | > 128 mg/L | > 128 mg/L | 0.03 mg/L (≈ 0.0388 µM) | 32 mg/L (≈ 41.4 µM) | 8 mg/L (≈ 10.3 µM) | 0.06 mg/L (≈ 0.0776 µM) | CC[C@H]1OC(=O)[C@H](C)[C@@H](O[C@H]2C[C@@](C)(OC)[C@@H](O)[C@H](C)O2)[C@H](C)[C@@H](O[C@@H]2O[C@H](C)C[C@H](N(C)C)[C@H]2O)[C@@](C)(OCC#N)C[C@@H](C)C(=O)[C@H](C)[C@@H](O)[C@]1(C)O
